Results as given in patent publication US10463710B2, “Short synthetic peptide for the treatment and/or prophylaxis of autoimmune and inflammatory disorders” (MacKay Memorial Hospital, priority 2015, dated 2019).
Entries after “also recorded” stand apart in the source; their conditions may differ.

How the values were obtained:
[1] = in vitro; type: cell-based, murine; conditions: mouse, Raw264.7 cell viability
[2] = test system: Raw264.7 macrophage cells; assay: in vitro; type: cell-based, murine; conditions: Example 1 results
[3] = test system: IMQ-induced psoriasis-like skin inflammation; assay: Mouse model of IMQ-induced psoriasis-like skin inflammation; type: in vivo, BALB/c mice; conditions: topical Clobetasol 0.02%
Description: All experimental procedures were approved by the Mackay Memorial Hospital Animal Care and Uses Committee and conducted according to national animal welfare regulations. Psoriasis-like skin inflammation was created by treating mouse skin with Imiquimod (IMQ) in accordance with the procedures described by van der Fits et al (J Immunol. (2009), 182, 5836-5845). Accordingly, each BALB/c mice (8 weeks old) received a daily topical dose of 62.5 mg of commercially available IMQ cream (5%) on the shaved back and the right ear for 6 consecutive days; whereas the control mice (normal group) were treated with a control cream. For treatment, 7-mer analogue was mixed with IMQ cream to a concentration 100 μM.
Keratinocyte proliferation was determined by 5-bromo-2′-deoxyuridine (BrdU) incorporation. BrdU (Sigma-Aldrich) was reconstituted in DMSO as a stock solution of 80 mM. 10 μl of BrdU mixed with 90 μl of PBS was intraperitoneally injected into each mouse for 24 hr prior to euthanasia. Back skin was fixed overnight in 4% paraformaldehyde and embedded in paraffin for immunohistochemistry.
In this example, the efficacy of the present synthetic peptides of Example 1 on IMQ-induced psoriasis-like skin inflammation was investigated. To this purpose, animals (8-week-old mice) were given a daily topical dose of IMQ cream on the shaved back for six consecutive days, so as to induce psoriasis-like skin inflammation and desquamation (FIG. 1; left panel).
Psoriasis is a disease resulted from abnormal keratinocyte proliferation, thus the effects of the present synthetic peptides on the proliferation of keratinocytes were also monitored in accordance with procedures described in the section of “Materials and Methods”. Results are illustrated in FIG. 2.

Compound	viability at 24 h, 20 μM [1] [%]	bioactivity / inhibitory activity relative to 7-mer (in words) [2]	desquamation formation ([3]; FIG. 1)	skin atrophy ([3]; entire back of test animals)
CC(=O)N[C@@H](CC(=O)O)C(=O)N[C@H](C(=O)N[C@@H](Cc1ccccc1)C(=O)N[C@@H](CCCNC(=N)N)C(=O)N[C@H](C(=O)N[C@@H](CCCNC(=N)N)C(=O)N[C@H](C(N)=O)[C@@H](C)O)C(C)C)C(C)C [7-mer VFT, NH2-Asp-Val-Phe-Arg-Val-Arg-Thr-COOH]	71.1 ± 2.48	could sustain 7-mer bioactivity, only partly; also recorded: relatively the same bioactivity that is similar to the 7-mer		
CC[C@H](C)[C@H](NC(=O)[C@H](CCCNC(=N)N)NC(=O)[C@H](Cc1c[nH]c2ccccc12)NC(=O)[C@H](CC(C)C)NC(=O)[C@H](CC(=O)O)NC(C)=O)C(=O)N[C@@H](CCCNC(=N)N)C(=O)N[C@@H](CO)C(N)=O [7-mer WI, NH2-Asp-Leu-Trp-Arg-Ile-Arg-Ser-COOH]	77.9 ± 2.87	could sustain 7-mer bioactivity, only partly		
C[C@H]1C[C@H]2[C@@H]3CCC4=CC(=O)C=C[C@]4(C)[C@@]3(F)[C@@H](O)C[C@]2(C)[C@@]1(O)C(=O)CCl [Clobetasol, reference compound]			ameliorated desquamation formation	caused skin atrophy
